Measured values reported in patent publication US9352074B2, “Antimicrobial examination gloves” (priority 2013, dated 2016).

How the values were obtained:
Staphylococcus aureus = assay: Zones of inhibition analysis of nitrile rubber film swatches on seeded agar; format: cell-based; conditions: for antibacterial properties of polymer film (in words): incorporated into the nitrile rubber latex dip bath; for sides of the film exhibiting antibacterial activity (in words): PHMB in coagulation layer, triclosan in nitrile rubber
Description: Tests were carried out in order to assess which combination of biocidal agents were compatible with the glove manufacturing process and gave the best antimicrobial performance. Small rectangles of nitrile rubber latex were prepared by dipping clean microscope slides into warm coagulant solution, withdrawing them and drying them in an oven at 110° C. The slides were allowed to cool before dipping into the nitrile rubber latex dispersion. They were withdrawn, allowed to drain, and placed in an oven at 110° C. After cooling the layer of cured nitrile rubber was carefully removed from the microscope slide and sent for testing to determine their antimicrobial properties. Active ingredients were incorporated into the coagulant and nitrile polymer latex dispersion as appropriate.
The qualitative measure of their antibacterial performance was carried out by zones of inhibition analysis. The procedure used was for each sample to be assayed against Staphylococcus aureus, a bacterium commonly found on the skin of humans, by comparing their zones of inhibition on an agar preparation.
Seeded agar plates were prepared by adding 0.1 ml of an overnight broth culture into a clean, sterile petri dish, adding approximately 20 ml of an agar preparation that had been sterilised and cooled to 45° C. before use. The selective agar used was Tryptone Soy Agar. The challenge organism was mixed into the agar by gentle swirling to provide a homogeneous suspension. The plates were allowed to set for approximately one hour in a cool dry place.
Swatches of the polymer glove material were cut to approximately 2 cm square and placed on the seeded agar. The petri dishes were then placed in an incubator overnight at 37° C. Migration of the chemicals toxic to the challenge organisms creates a zone around the edge of the swatch where growth of the challenge organism is inhibited. The relative distance of the zone inhibition from the edge of the swatch for each organism gives an indication of the antibacterial efficacy of the products.

[1] = cited from earlier work
[2] = Experiment 3, 1.0% added to coagulant solution
[3] = Experiment 3, added to the calcium containing coagulant solution, agent on one side of the film
[4] = Experiment 4, incorporated into the coagulation layer / coagulant solution
[5] = Experiment 3, 0.1% added to coagulant solution
[6] = Experiment 2, 0.1% added to nitrile rubber
[7] = Experiment 2, 0.1% in nitrile rubber, compared with control sample 12B/088

**Q.** Which results are given for `Cn1sc(Cl)cc1=O` [Methylchloroisothiazolinone]?
**A.** antibacterial effectiveness (in words) (Staphylococcus aureus; Experiment 3, 0.5%): effective antibacterial agent; ZONE OF INHIBITION (Staphylococcus aureus; Experiment 3, 0.5% added to nitrile rubber): 15 mm

**Q.** What does the source list for Benzalkonium chloride [BTC 50E]?
**A.** ZONE OF INHIBITION (Staphylococcus aureus; Experiment 3, 0.22% added to coagulant solution): 14 mm; ZONE OF INHIBITION (Staphylococcus aureus; [2]): 30 mm; antibacterial performance (in words) (Staphylococcus aureus; [3]): effective antibacterial performance; ZONE OF INHIBITION (Staphylococcus aureus; Experiment 4, 0.25% added to coagulant solution): 8 mm; antibacterial performance (in words) (Staphylococcus aureus; [4]): good results

**Q.** For `[H]/N=C(\N/C(=N/[H])NCCCCCCNC(=N)NC(=N)Nc1ccc(Cl)cc1)Nc1ccc(Cl)cc1` [Chlorhexidine], which “ZONE OF INHIBITION” value (Staphylococcus aureus; [5]) is on record?
**A.** 11 mm

**Q.** And the “ZONE OF INHIBITION” value (Staphylococcus aureus; [2])?
**A.** 18 mm

**Q.** What about the “antibacterial performance (in words)” value (Staphylococcus aureus; [3]) of the same molecule?
**A.** effective antibacterial performance

**Q.** For `O=c1[nH]sc2ccccc12` [Proxel (BIT), 1,2-Benzisothiazol-3((2H)-one], which “ZONE OF INHIBITION” value (Staphylococcus aureus; Experiment 1, 0.15% added to nitrile rubber) is on record?
**A.** 9 mm

**Q.** What about the “antibacterial properties of polymer film (in words)” value (Staphylococcus aureus; Experiment 1) of the same molecule?
**A.** exhibited antibacterial properties

**Q.** And the “ZONE OF INHIBITION” value (Staphylococcus aureus; [6])?
**A.** 15 mm

**Q.** What about the “antibacterial effectiveness (in words)” value (Staphylococcus aureus; [7]) of the same molecule?
**A.** significantly more effective

**Q.** Which “ZONE OF INHIBITION” value (Staphylococcus aureus; Experiment 4, 0.3% added to coagulant solution, face down as normal) does the source give for Poly(hexamethylene biguanide) [PHMB] here?
**A.** 16 mm

**Q.** What about the “ZONE OF INHIBITION” value (Staphylococcus aureus; Experiment 4, 0.3% added to coagulant solution, film placed face up on the agar plate, biocide not on the side on the agar gel) of the same molecule?
**A.** 5 mm

**Q.** What about the “sides of the film exhibiting antibacterial activity (in words)” value (Staphylococcus aureus; Experiment 4) of the same molecule?
**A.** only one side of the polymer film exhibits antibacterial performance

**Q.** And the “antibacterial performance (in words)” value (Staphylococcus aureus; [4])?
**A.** good results

**Q.** With `Oc1cc(Cl)ccc1Oc1ccc(Cl)cc1Cl` [Triclosan] as the molecule, how does the solubility in water [1] read?
**A.** 0.0012 g per liter

**Q.** What about the “ZONE OF INHIBITION” value (Staphylococcus aureus; Experiment 1, 0.05% added to nitrile rubber) of the same molecule?
**A.** 15 mm

**Q.** And the “antibacterial properties of polymer film (in words)” value (Staphylococcus aureus; Experiment 1)?
**A.** exhibited antibacterial properties

**Q.** What about the “ZONE OF INHIBITION” value (Staphylococcus aureus; [6]) of the same molecule?
**A.** 20 mm

**Q.** What about the “antibacterial effectiveness (in words)” value (Staphylococcus aureus; [7]) of the same molecule?
**A.** significantly more effective

**Q.** And the “ZONE OF INHIBITION” value (Staphylococcus aureus; Experiment 2, 0.25% added to nitrile rubber)?
**A.** 18 mm

**Q.** And the “ZONE OF INHIBITION” value (Staphylococcus aureus; Experiment 3, 0.05% added to nitrile rubber)?
**A.** 12 mm

**Q.** What about the “antibacterial effectiveness (in words)” value (Staphylococcus aureus; Experiment 3, 0.05% in the nitrile rubber film (run 12C/064)) of the same molecule?
**A.** effective

**Q.** What about the “ZONE OF INHIBITION” value (Staphylococcus aureus; [5]) of the same molecule?
**A.** 10 mm

**Q.** What about the “ZONE OF INHIBITION” value (Staphylococcus aureus; Experiment 3, 0.1% added to nitrile rubber) of the same molecule?
**A.** 17 mm

**Q.** And the “ZONE OF INHIBITION” value (Staphylococcus aureus; Experiment 3, 0.5% added to coagulant solution)?
**A.** 12 mm

**Q.** What about the “antibacterial performance (in words)” value (Staphylococcus aureus; [3]) of the same molecule?
**A.** exhibited antibacterial performance but was not as effective as when it was incorporated into the nitrile rubber layer

**Q.** And the “ZONE OF INHIBITION” value (Staphylococcus aureus; Experiment 4, 0.1% added to nitrile rubber)?
**A.** 16 mm

**Q.** And the “sides of the film exhibiting antibacterial activity (in words)” value (Staphylococcus aureus; Experiment 4)?
**A.** both sides of the film exhibit antibacterial activity

**Q.** And the “antibacterial performance (in words)” value (Staphylococcus aureus; Experiment 4, incorporated into the nitrile rubber)?
**A.** good antibacterial performance
